Measured values: patent US20230365561A1, “BETA-LACTAMASE INHIBITORS AND THEIR PREPARATION” (NINGXIA ACADEMY OF AGRICUL TURE AND FORESTRY SCIENCES, priority 2020, published 2023)
Where a name gives a salt, the structure may show the parent alone.

How the values were obtained:
Format in all cases: cell-based
[1] = test system: K. pneumoniae 700603 (strain 4); assay: MIC by broth microdilution (alone and in combination with meropenam), strain 4; details: Klebsiella pneumoniae, compound alone, read-out: MIC, antibacterial activity of example alone
Method: (§1) Compounds of the present invention alone, meropenam (MER) alone, and as a combination with test antibiotic (meropenam) were tested for antimicrobial activity by determing minimum inhibitory concentration (MIC, mg/L) using the broth microdilution method according to the guidelines of the Clinical Laboratories and Stansards Insitute (“Methods for Dilution Antimicrobial Suscetibility Tests for Bacterial that Grow Aerobiclly”, Approved standard, […]., Clinical and Laboratories Stanards Institute (CLSI) Document M7-A8, Wayne, Pa., USA, 2009). Meropenam as a test antibiotic compound was dissolved in DMSO. Meropenam was then diluted in microbial growth medium (Mueller-Hinton Broth II, cation adjusted) resulting in a final concention range of 0.125-64 mg/L in serial two-fold dilution. In all cases the filnal DMSO concentraion was less than 0.5%. Bacteria were added to 96-well microtitre plates containing the serial two-fold dilutions of the compoumds; the final cell density was appoximately 5x10^5 colony forming units/mL (CFU/mL). Plates were incubated at 37° C. for 18-24 hours and read visually. The MIC, i.e. the lowest concentration of the test compound that inhibited visible growth of the bacteria, was recorded. The same assay conditions were used when the compounds of present invention alone, and as a combination with test meropenam antibiotic compound was tested for minmum inhibitory concentration (MIC, mg/L). Whileest meropenam was serially diluted as descrribed above, a constant concentration of the present invention of 4 µg/mL was used.
(§2) Bacterial strains that were used to evaluate the antimicrobial activity using the MIC determination included but were not limited to E. coli clinical isolate (strain 1), E. coli 8739 (strain 2), K. pneumoniae clinical isolate (strain 3), K. pneumoniae 700603 (strain 4), E. cloacae clinical isolate (strain 5), E. cloacae 700323 (strain 6), A. baumannii clinical isolate (strain 7), A. baumannii 19606 (strain 8), P. aeruginosa clinical isolate (strain 9), P. aeruginosa 9027 (strain 10).

[2] = test system: P. aeruginosa 9027 (strain 10); assay: MIC by broth microdilution (alone and in combination with meropenam), strain 10; details: Pseudomonas aeruginosa, compound alone, read-out: MIC, antibacterial activity of example alone
Method: as §1, §2

[3] = test system: K. pneumoniae clinical isolate (strain 3); assay: MIC by broth microdilution (alone and in combination with meropenam), strain 3; details: Klebsiella pneumoniae, compound alone, read-out: MIC, antibacterial activity of example alone
Method: as §1, §2

[4] = test system: E. cloacae clinical isolate (strain 5); assay: MIC by broth microdilution (alone and in combination with meropenam), strain 5; details: Enterobacter cloacae, compound alone, read-out: MIC, antibacterial activity of example alone
Method: as §1, §2

[5] = test system: P. aeruginosa clinical isolate (strain 9); assay: MIC by broth microdilution (alone and in combination with meropenam), strain 9; details: Pseudomonas aeruginosa, compound alone, read-out: MIC, antibacterial activity of example alone
Method: as §1, §2

[6] = test system: A. baumannii 19606 (strain 8); assay: MIC by broth microdilution (alone and in combination with meropenam), strain 8; details: Acinetobacter baumannii, compound alone, read-out: MIC, antibacterial activity of example alone
Method: as §1, §2

[7] = test system: A. baumannii clinical isolate (strain 7); assay: MIC by broth microdilution (alone and in combination with meropenam), strain 7; details: Acinetobacter baumannii, compound alone, read-out: MIC, antibacterial activity of example alone
Method: as §1, §2

[8] = test system: E. cloacae 700323 (strain 6); assay: MIC by broth microdilution (alone and in combination with meropenam), strain 6; details: Enterobacter cloacae, compound alone, read-out: MIC, antibacterial activity of example alone
Method: as §1, §2

E. coli 8739 (strain 2) = assay: MIC by broth microdilution (alone and in combination with meropenam), strain 2; details: Escherichia coli, compound alone, read-out: MIC, antibacterial activity of example alone
Method: as §1, §2

[9] = test system: E. coli clinical isolate (strain 1); assay: MIC by broth microdilution (alone and in combination with meropenam), strain 1; details: Escherichia coli, compound alone, read-out: MIC, antibacterial activity of example alone
Method: as §1, §2

Measured: MIC

N=C(NC(=O)Cc1ncccn1)[C@@H]1CC[C@@H]2CN1C(=O)N2OS(=O)(=O)[O-].[Na+] [Ex.25, Sodium (2S,5R)-7-oxo-2-(N-(2-(pyrimidin-2-yl)acetyl)carbamimidoyl)-1,6-diazabicyclo[3.2.1]octan-6-yl Sulfate]
> 64 µg/mL: all assays above

CC(=O)N1CCC[C@H](C(=O)NC(=N)[C@@H]2CC[C@@H]3CN2C(=O)N3OS(=O)(=O)[O-])C1.[Na+] [Ex.26, Sodium (2S,5R)-2-(N-((S)-1-acetylpiperidine-3-carbonyl)carbamimidoyl)-7-oxo-1,6-diazabicyclo[3.2.1]octan-6-yl Sulfate]
> 64 µg/mL: all assays above

CC(=O)N1CCC[C@@H](C(=O)NC(=N)[C@@H]2CC[C@@H]3CN2C(=O)N3OS(=O)(=O)[O-])C1.[Na+] [Ex.27, Sodium (2S,5R)-2-(N-((R)-1-acetylpiperidine-3-carbonyl)carbamimidoyl)-7-oxo-1,6-diazabicyclo[3.2.1]octan-6-yl Sulfate]
> 64 µg/mL: all assays above

CN1CCC[C@H](C(=O)NC(=N)[C@@H]2CC[C@@H]3CN2C(=O)N3OS(=O)(=O)[O-])C1.[Na+] [Ex.28, Sodium (2S,5R)-2-(N-((S)-1-methylpiperidine-3-carbonyl)carbamimidoyl)-7-oxo-1,6-diazabicyclo[3.2.1]octan-6-yl Sulfate]
> 64 µg/mL: all assays above

CN1CCC[C@@H](C(=O)NC(=N)[C@@H]2CC[C@@H]3CN2C(=O)N3OS(=O)(=O)[O-])C1.[Na+] [Ex.29, Sodium (2S,5R)-2-(N-((R)-1-methylpiperidine-3-carbonyl)carbamimidoyl)-7-oxo-1,6-diazabicyclo[3.2.1]octan-6-yl Sulfate]
> 64 µg/mL: all assays above

CC(=O)N1CC[C@H](C(=O)NC(=N)[C@@H]2CC[C@@H]3CN2C(=O)N3OS(=O)(=O)[O-])C1.[Na+] [Ex.30, Sodium (2S,5R)-2-(N-((S)-1-acetylpyrrolidine-3-carbonyl)carbamimidoyl)-7-oxo-1,6-diazabicyclo[3.2.1]octan-6-yl Sulfate]
> 64 µg/mL: all assays above

CC(=O)N1CC[C@@H](C(=O)NC(=N)[C@@H]2CC[C@@H]3CN2C(=O)N3OS(=O)(=O)O)C1 [Ex.31, Sodium (2S,5R)-2-(N-((R)-1-acetylpyrrolidine-3-carbonyl)carbamimidoyl)-7-oxo-1,6-diazabicyclo[3.2.1]octan-6-yl Sulfate]
> 64 µg/mL: all assays above

CN1CC[C@H](C(=O)NC(=N)[C@@H]2CC[C@@H]3CN2C(=O)N3OS(=O)(=O)[O-])C1.[Na+] [Ex.32, Sodium (2S,5R)-2-(N-((S)-1-methylpyrrolidine-3-carbonyl)carbamimidoyl)-7-oxo-1,6-diazabicyclo[3.2.1]octan-6-yl Sulfate]
> 64 µg/mL: all assays above

CN1CC[C@@H](C(=O)NC(=N)[C@@H]2CC[C@@H]3CN2C(=O)N3OS(=O)(=O)O)C1 [Ex.33, Sodium (2S,5R)-2-(N-((R)-1-methylpyrrolidine-3-carbonyl)carbamimidoyl)-7-oxo-1,6-diazabicyclo[3.2.1]octan-6-yl Sulfate]
> 64 µg/mL: all assays above

N=C(NC(=O)Cc1cccnc1)[C@@H]1CC[C@@H]2CN1C(=O)N2OS(=O)(=O)[O-].[Na+] [Ex.34, Sodium (2S,5R)-7-oxo-2-(N-(2-(pyridin-3-yl)acetyl)carbamimidoyl)-1,6-diazabicyclo[3.2.1]octan-6-yl sulfate]
> 64 µg/mL: all assays above

N=C(NC(=O)CN1CCCCC1)[C@@H]1CC[C@@H]2CN1C(=O)N2OS(=O)(=O)[O-].[Na+] [Ex.35, Sodium (2S,5R)-7-oxo-2-(N-(2-(piperidin-1-yl)acetyl)carbamimidoyl)-1,6-diazabicyclo[3.2.1]octan-6-yl Sulfate]
> 64 µg/mL: all assays above

N=C(NC(=O)CC1CCCCC1)[C@@H]1CC[C@@H]2CN1C(=O)N2OS(=O)(=O)[O-].[Na+] [Ex.36, Sodium (2S,5R)-2-(N-(2-cyclohexylacetyl)carbamimidoyl)-7-oxo-1,6-diazabicyclo[3.2.1]octan-6-yl Sulfate]
> 64 µg/mL: all assays above
